The values below come from patent US20190119282A1, “IMIDAZOPYRIDAZINES USEFUL AS INHIBITORS OF THE PAR-2 SIGNALING PATHWAY” (Vertex Pharmaceuticals Incorporated, priority 2013, published 2019).

Usually IC50 stands for the point on the concentration scale where inhibition reaches its midpoint.

Each structure is given as a SMILES string. Some results are limits rather than exact numbers.

Experiment [1] deals with T1, PAR2 (HT-29 cells, SLIGKV activation) (Homo sapiens, UniProt P55085).
T1 construct: host or cells: HT-29 cells
T1 sequence (P55085 26-397): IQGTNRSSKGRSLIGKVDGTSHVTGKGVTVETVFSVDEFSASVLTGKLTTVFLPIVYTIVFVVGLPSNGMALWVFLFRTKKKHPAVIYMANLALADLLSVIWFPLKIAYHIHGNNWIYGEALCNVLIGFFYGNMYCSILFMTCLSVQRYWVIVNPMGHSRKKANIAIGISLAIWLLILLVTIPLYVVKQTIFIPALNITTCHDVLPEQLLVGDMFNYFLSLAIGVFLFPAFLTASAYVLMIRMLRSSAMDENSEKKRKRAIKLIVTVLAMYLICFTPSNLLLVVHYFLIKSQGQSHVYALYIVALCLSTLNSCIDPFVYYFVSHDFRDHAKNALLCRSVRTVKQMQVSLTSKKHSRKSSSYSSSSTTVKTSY
Kind of experiment: Ca FLIPR TETRA assay, ANTAGONIST mode, stimulation with 8 μM SLIGKV. In kind it is cell-based. The settings on record: for IC50: HT-29 cells, stimulation with 8 μM SLIGKV. Summed up:
(§1)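 Antagonist-mode FLIPR Tetra Ca2+ readout: after 30 min r.t. compound pre-incubation, HT-29 cells are challenged with trypsin (3.1 U/mL final), SLIGKV (8 μM), thrombin (1 U/mL) or UTP (0.6 μM). Cells were plated overnight in 1% FBS medium and dye-loaded with Calcium 5; an initial read checks compound agonism.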

Experiment [2] concerns the target T2, PAR2 (HT-29 cells, trypsin activation) (Homo sapiens, UniProt P55085).
T2 construct: host or cells: HT-29 cells
T2 sequence (P55085 26-397): T1 sequence (P55085 26-397)
The experiment in a line: Ca FLIPR TETRA assay, ANTAGONIST mode, stimulation with 3.1 U/mL trypsin. The class given is cell-based. The settings on record: HT-29 cells, stimulation with 3.1 U/mL trypsin. Summed up:
as §1

Experiment [3] has as its system Thrombin-stimulated Ca2+ response in HT-29 cells. The experiment in a line: Ca FLIPR TETRA assay, ANTAGONIST mode, stimulation with 1 U/mL Thrombin. The settings on record: for IC50: Homo sapiens, HT-29 cells, stimulation with 1 U/mL Thrombin. In kind it is cell-based, human. Summed up:
as §1

The subject of experiment [4] is UTP-stimulated Ca2+ response in HT-29 cells. Kind of experiment: Ca FLIPR TETRA assay, ANTAGONIST mode, stimulation with 0.6 μM UTP. The class given is cell-based, human. The settings on record: for IC50: Homo sapiens, HT-29 cells, stimulation with 0.6 μM UTP. Summed up: as §1

In the case of `CCNC(=O)OC1CCN(C(=O)c2cn3nc(-c4ccc(F)cc4)cc(C)c3n2)CC1` [Compound I-63], the IC50 in experiment [1] was found to be 1 µM; in experiment [2] it was 4.1 µM; in experiment [3], 35 µM; in experiment [4], 37 µM.

With `COC(=O)[C@@H]1CCN(C(=O)c2cn3nc(-c4ccc(F)cc4)cc(C(F)(F)F)c3n2)C[C@@H]1C` [Compound I-64], the half-inhibitory concentration (IC50) in experiment [1] was determined as 0.11 µM; in experiment [2], 0.22 µM; in experiment [3], 5.7 µM; in experiment [4], 42 µM.

Take `O=C1CCN(C(=O)c2cn3nc(-c4ccc(F)cc4)cc(C(F)(F)F)c3n2)CC1` [Compound I-66]: the IC50 is 5 µM in experiment [1], 12 µM in experiment [2], 48 µM in experiment [3] and greater than 50 µM in experiment [4].

On to `O=C(c1cn2nc(-c3ccc(F)cc3)cc(C(F)(F)F)c2n1)N1CCCCC1c1ccncc1` (centres unmarked) [Compound I-67], for which the IC50 in experiment [1] was 3.1 µM; in experiment [2], 3.6 µM; in experiment [3], 6.7 µM; in experiment [4] it was 8.1 µM.

Take `CC1CN(C(=O)c2cn3nc(-c4ccc(F)cc4)cc(C(F)(F)F)c3n2)CCC1O` (centres unmarked) [Compound I-68]: the IC50 in experiment [1] stood at 5.9 µM; in experiment [2] it was 13 µM; in experiment [3], 19 µM; in experiment [4], 29 µM.

On to `CC(C)(O)C1CCCN(C(=O)c2cn3nc(-c4ccc(F)cc4)cc(C(F)(F)F)c3n2)C1` (centres unmarked) [Compound I-69], for which the IC50 was found to be 6 µM in experiment [1], 9.3 µM in experiment [2], 8.5 µM in experiment [3] and 36 µM in experiment [4].

`O=C(c1cn2nc(-c3ccc(F)cc3)cc(C(F)(F)F)c2n1)N1CC[C@@]2(O)CCCC[C@H]2C1` [Compound I-70]: the half-inhibitory concentration (IC50) in experiment [1] is 3.7 µM; in experiment [2], 5.7 µM; in experiment [3], 12 µM; in experiment [4], 17 µM.

With `O=C(c1cn2nc(-c3ccc(F)cc3)cc(C(F)(F)F)c2n1)N1CCCCC1c1ccccc1` (centres unmarked) [Compound I-71], the IC50 in experiment [1] is 0.95 µM; in experiment [2], 0.68 µM; in experiment [3] it was 43 µM; in experiment [4] it was greater than 50 µM.

Take `Cc1noc(C2CCCCN2C(=O)c2cn3nc(-c4ccc(F)cc4)cc(C(F)(F)F)c3n2)n1` (centres unmarked) [Compound I-72]: the IC50 was 1.4 µM in experiment [1], 1.5 µM in experiment [2], 50 µM in experiment [3] and greater than 50 µM in experiment [4].

Regarding `CCOC(=O)[C@@H]1CCCN(C(=O)c2cn3nc(-c4ccc(F)cc4)cc(C(F)(F)F)c3n2)[C@@H]1C` [Compound I-75], the IC50 was 1.1 µM in experiment [1], 1.2 µM in experiment [2], 1.6 µM in experiment [3] and 2.2 µM in experiment [4].

Regarding `CCOC(=O)[C@H]1CCCN(C(=O)c2cn3nc(-c4ccc(F)cc4)cc(C(F)(F)F)c3n2)[C@@H]1C` [Compound I-76], the IC50 came out at 3.3 µM in experiment [1], 4.8 µM in experiment [2], 5.5 µM in experiment [3] and 4.4 µM in experiment [4].

As to `O=C(c1cn2nc(-c3ccc(F)cc3)cc(C(F)(F)F)c2n1)N1CCCCC1c1ccn[nH]1` (centres unmarked) [Compound I-78], the IC50 in experiment [1] is 0.51 µM; in experiment [2], 1.6 µM; in experiment [3], 4.1 µM; in experiment [4], 4.5 µM.

As for `O=C(c1cn2nc(-c3ccc(F)cc3)cc(C(F)(F)F)c2n1)N1CCCCC1c1ccccn1` (centres unmarked) [Compound I-79], the IC50 in experiment [1] was 1.3 µM; in experiment [2], 1.7 µM; in experiment [3], 2 µM; in experiment [4] it was 3 µM.

For the compound `O=C(c1cn2nc(-c3ccc(F)cc3)cc(C(F)(F)F)c2n1)N1CCC(n2cc(-c3ccccc3)[nH]c2=O)CC1` [Compound I-80], the IC50 in experiment [1] is 0.054 µM; in experiment [2] it was 0.082 µM; in experiment [3], greater than 5 µM; in experiment [4], greater than 5 µM.

On to `NC(=O)C1CCCCN1C(=O)c1cn2nc(-c3ccc(F)cc3)cc(C(F)(F)F)c2n1` (centres unmarked) [Compound I-81], for which the IC50 is 6.7 µM in experiment [1], 12 µM in experiment [2], 9.2 µM in experiment [3] and 17 µM in experiment [4].

In the case of `C[C@H]1CN(C(=O)c2cn3nc(-c4ccc(F)cc4)cc(C(F)(F)F)c3n2)CCN1C(=O)OCC(C)(C)C` [Compound I-82], the IC50 in experiment [1] is 0.022 µM; in experiment [2] it was 0.1 µM; in experiment [3], 14 µM; in experiment [4], 22 µM.

For `C[C@H]1CN(C(=O)c2cn3nc(-c4ccc(F)cc4)cc(C(F)(F)F)c3n2)CCN1C(=O)Oc1ccccc1` [Compound I-83], in experiment [1] (@ 0.069 (μM)), the “SLIGKV % @ concentration” value is listed as 46% @ 0.069. In addition, the IC50 in experiment [2], in experiment [3] and in experiment [4] was greater than 50 µM in each case.

Consider `CC(C)(C)OC(=O)N1CCCN(C(=O)c2cn3nc(-c4ccc(F)cc4)cc(C(F)(F)F)c3n2)CC1` [Compound I-84], for which the IC50 worked out at 0.79 µM in experiment [1], 1.8 µM in experiment [2], 6.4 µM in experiment [3] and 5.1 µM in experiment [4].

Consider `C[C@H]1CN(C(=O)c2cn3nc(-c4ccc(F)cc4)cc(C(F)(F)F)c3n2)CCN1C(=O)[C@@H]1CCCO1` [Compound I-85], for which the 50% inhibitory concentration (IC50) in experiment [1] was 1.6 µM; in experiment [2] it was 10 µM; in experiment [3], 49 µM; in experiment [4], 40 µM.

In the case of `C[C@H]1CN(C(=O)c2cn3nc(-c4ccc(F)cc4)cc(C(F)(F)F)c3n2)CCN1C(=O)C1CCCCC1` [Compound I-86], the IC50 worked out at 0.078 µM in experiment [1], 0.6 µM in experiment [2], 35 µM in experiment [3] and 37 µM in experiment [4].

Consider `C[C@H]1CN(C(=O)c2cn3nc(-c4ccc(F)cc4)cc(C(F)(F)F)c3n2)CCN1C(=O)c1ccccc1` [Compound I-89], for which the concentration for half-maximal inhibition (IC50) in experiment [1] is 0.27 µM; in experiment [2], 0.9 µM; in experiment [3], greater than 50 µM; in experiment [4], greater than 50 µM.

Consider `C[C@H]1CN(C(=O)c2cn3nc(-c4ccc(F)cc4)cc(C(F)(F)F)c3n2)CCN1C(=O)Cc1ccccc1` [Compound I-90], for which the IC50 in experiment [1] is 0.015 µM; in experiment [2], 0.044 µM; in experiment [3], greater than 5 µM; in experiment [4], greater than 5 µM.

Take `CC(C)C(O)C(=O)N1CCN(C(=O)c2cn3nc(-c4ccc(F)cc4)cc(C(F)(F)F)c3n2)C[C@@H]1C` (some centres unmarked) [Compound I-91]: the IC50 in experiment [1] was 0.069 µM; in experiment [2], 1.5 µM; in experiment [3], 26 µM; in experiment [4], 20 µM.

On to `C[C@H]1CN(C(=O)c2cn3nc(-c4ccc(F)cc4)cc(C(F)(F)F)c3n2)CCN1C(=O)C(O)Cc1ccccc1` (some centres unmarked) [Compound I-92], for which the IC50 in experiment [1] is 0.01 µM; in experiment [2] it was 0.015 µM; in experiment [3] it was greater than 5 µM; in experiment [4], greater than 5 µM.

Take `CC1CN(C(=O)c2cn3nc(-c4ccc(F)cc4)cc(C(F)(F)F)c3n2)CCCN1C(=O)OC(C)(C)C` (centres unmarked) [Compound I-94]: the IC50 in experiment [1] is 3.6 µM; in experiment [2], 12 µM; in experiment [3], greater than 50 µM; in experiment [4], greater than 50 µM.

Take `CNC(=O)[C@@H]1CCN(C(=O)c2cn3nc(-c4ccc(F)cc4)cc(C(F)(F)F)c3n2)C[C@@H]1C` [Compound I-95]: the IC50 in experiment [1] is 1.6 µM; in experiment [2] it was 7.2 µM; in experiment [3], greater than 50 µM; in experiment [4], 43 µM.

With `CC(C)c1cc(-c2ccc(F)cc2)nn2cc(C(=O)N3CCN(C(=O)OC(C)(C)C)[C@@H](C)C3)nc12` [Compound I-96], the IC50 was 0.044 µM in experiment [1] and 0.15 µM in experiment [2]. Further, the “Thrombin % @ concentration” value in experiment [3] (@ 50 (μM)) was determined as 52% @ 50. In addition, the “UTP % @ concentration” value in experiment [4] (@ 50 (μM)) was found to be 66% @ 50.

Turning to `CC(C)c1cc(-c2ccc(F)cc2)nn2cc(C(=O)N3CCN(C(=O)[C@H](O)CC(C)(C)C)[C@@H](C)C3)nc12` [Compound I-97], the IC50 in experiment [1] is 0.0007 µM; in experiment [2], 0.0006 µM; in experiment [3], greater than 5 µM; in experiment [4], greater than 5 µM.

Take `C=C(C)c1cc(-c2ccc(F)cc2)nn2cc(C(=O)N3CCN(C(=O)[C@H](O)CC(C)(C)C)[C@@H](C)C3)nc12` [Compound I-99]: the IC50 was 0.003 µM in experiment [1], 0.01 µM in experiment [2], greater than 50 µM in experiment [3] and greater than 50 µM in experiment [4].

Regarding `C[C@H]1CN(C(=O)c2cn3nc(-c4ccc(F)cc4)cc(C(F)(F)F)c3n2)CCN1C(=O)C(O)c1cccnc1` (some centres unmarked) [Compound I-100], the IC50 in experiment [1] was 0.2 µM; in experiment [2], 3 µM; in experiment [3], 43 µM; in experiment [4], 48 µM.

As for `CC(C)c1cc(-c2ccc(F)cc2)nn2cc(C(=O)N3CCN(C(=O)C(O)c4cccnc4)[C@@H](C)C3)nc12` (some centres unmarked) [Compound I-101], the IC50 in experiment [1] is 0.007 µM; in experiment [2] it was 1.4 µM; in experiment [3], 27 µM; in experiment [4] it was 30 µM.

With `Cc1cc(-c2ccc(F)cc2)nn2cc(C(=O)N3CCN(C(=O)[C@H](O)CC(C)(C)C)CC3(C)C)nc12` [Compound I-102], the IC50 in experiment [1] stood at 0.003 µM; in experiment [2] it was 0.008 µM; in experiment [3], 17 µM; in experiment [4] it was 23 µM.
